Laboratory results reported in ChEMBL document CHEMBL1143882, “Selective cell adhesion inhibitors: Barbituric acid based alpha4beta7--MAdCAM inhibitors” (Bioorg Med Chem Lett, 2008).
pIC50: −log10 of the molar value.

How the values were obtained:
Integrin alpha-4/beta-7 = molecular target: T1, Integrin alpha-4/beta-7 (Homo sapiens, UniProt P13612+P26010); assay: Inhibition of human integrin alpha-4-beta-7-MAdCAM interaction in human RPMI 8866 cells by whole-cell adhesion assay; format: cell-based
T1 sequence (P13612 whole entry): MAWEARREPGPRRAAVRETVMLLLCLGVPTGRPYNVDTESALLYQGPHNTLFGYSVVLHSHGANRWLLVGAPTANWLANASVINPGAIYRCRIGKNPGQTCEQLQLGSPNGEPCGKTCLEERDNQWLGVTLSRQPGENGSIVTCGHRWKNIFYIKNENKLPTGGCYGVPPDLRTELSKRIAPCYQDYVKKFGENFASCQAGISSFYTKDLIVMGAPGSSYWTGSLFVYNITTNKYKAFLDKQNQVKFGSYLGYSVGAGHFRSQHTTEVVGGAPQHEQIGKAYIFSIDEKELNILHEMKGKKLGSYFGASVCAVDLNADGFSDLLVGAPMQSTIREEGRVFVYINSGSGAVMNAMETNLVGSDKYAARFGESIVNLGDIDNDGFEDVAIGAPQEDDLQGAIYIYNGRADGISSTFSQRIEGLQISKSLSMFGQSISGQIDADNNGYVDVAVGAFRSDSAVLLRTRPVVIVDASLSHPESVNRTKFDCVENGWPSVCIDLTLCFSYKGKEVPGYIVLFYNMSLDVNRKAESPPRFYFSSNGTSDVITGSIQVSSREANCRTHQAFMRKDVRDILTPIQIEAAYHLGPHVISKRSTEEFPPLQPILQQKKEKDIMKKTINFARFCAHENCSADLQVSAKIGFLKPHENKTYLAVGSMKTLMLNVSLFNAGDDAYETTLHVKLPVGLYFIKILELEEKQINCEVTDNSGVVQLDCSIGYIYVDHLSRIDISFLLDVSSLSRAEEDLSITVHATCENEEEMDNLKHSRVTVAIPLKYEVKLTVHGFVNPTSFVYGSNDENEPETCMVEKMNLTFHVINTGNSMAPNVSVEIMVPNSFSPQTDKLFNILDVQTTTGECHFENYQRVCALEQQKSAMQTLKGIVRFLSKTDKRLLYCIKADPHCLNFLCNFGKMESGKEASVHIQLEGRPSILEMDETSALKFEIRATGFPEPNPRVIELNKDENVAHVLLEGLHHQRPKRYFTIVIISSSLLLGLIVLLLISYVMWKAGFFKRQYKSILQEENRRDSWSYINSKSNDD
T1 sequence (P26010 whole entry): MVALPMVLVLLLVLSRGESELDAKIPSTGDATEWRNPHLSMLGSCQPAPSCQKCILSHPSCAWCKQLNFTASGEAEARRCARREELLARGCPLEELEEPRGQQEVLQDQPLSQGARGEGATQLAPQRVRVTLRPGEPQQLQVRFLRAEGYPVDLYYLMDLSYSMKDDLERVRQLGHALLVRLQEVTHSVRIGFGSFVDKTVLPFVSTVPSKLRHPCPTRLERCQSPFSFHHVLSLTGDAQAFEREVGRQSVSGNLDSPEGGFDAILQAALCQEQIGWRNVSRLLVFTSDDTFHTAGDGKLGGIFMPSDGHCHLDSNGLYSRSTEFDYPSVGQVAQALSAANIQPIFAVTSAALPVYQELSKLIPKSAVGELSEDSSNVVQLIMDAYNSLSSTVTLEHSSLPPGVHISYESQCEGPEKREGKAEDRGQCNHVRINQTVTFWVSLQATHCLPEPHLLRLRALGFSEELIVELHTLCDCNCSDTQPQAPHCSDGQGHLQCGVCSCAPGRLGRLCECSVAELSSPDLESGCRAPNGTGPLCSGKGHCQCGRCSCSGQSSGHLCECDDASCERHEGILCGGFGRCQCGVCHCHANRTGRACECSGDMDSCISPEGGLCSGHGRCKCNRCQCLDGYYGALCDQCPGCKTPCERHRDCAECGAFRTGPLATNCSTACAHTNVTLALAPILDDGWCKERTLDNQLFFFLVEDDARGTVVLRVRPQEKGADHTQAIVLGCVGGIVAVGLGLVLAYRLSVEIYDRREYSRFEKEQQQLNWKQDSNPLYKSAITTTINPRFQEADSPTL

Integrin alpha-5/beta-1 = Integrin alpha-5/beta-1 (Homo sapiens, UniProt P05556+P08648); assay: Inhibition of integrin alpha-5-beta-1-fibronectin interaction; format: protein-complex assay
Integrin alpha-4/beta-1 = Integrin alpha-4/beta-1 (Homo sapiens, UniProt P05556+P13612); assay: Inhibition of integrin alpha-4-beta-1-VCAM interaction; format: protein-complex assay
[1] = Clearance in mouse; format: ADME, organism-based; details: in vivo
[2] = Oral bioavailability in mouse; format: ADME, organism-based; details: in vivo
Mus musculus = species on record: Mus musculus; assay: AUC in mouse; format: ADME, organism-based, Plasma; details: in vivo
[3] = Half life in mouse; format: ADME, organism-based; details: in vivo
[4] = Volume of distribution in mouse; format: ADME, organism-based; details: in vivo

Chain of Integrin alpha-5/beta-1 (P05556 21-798 limits assumed): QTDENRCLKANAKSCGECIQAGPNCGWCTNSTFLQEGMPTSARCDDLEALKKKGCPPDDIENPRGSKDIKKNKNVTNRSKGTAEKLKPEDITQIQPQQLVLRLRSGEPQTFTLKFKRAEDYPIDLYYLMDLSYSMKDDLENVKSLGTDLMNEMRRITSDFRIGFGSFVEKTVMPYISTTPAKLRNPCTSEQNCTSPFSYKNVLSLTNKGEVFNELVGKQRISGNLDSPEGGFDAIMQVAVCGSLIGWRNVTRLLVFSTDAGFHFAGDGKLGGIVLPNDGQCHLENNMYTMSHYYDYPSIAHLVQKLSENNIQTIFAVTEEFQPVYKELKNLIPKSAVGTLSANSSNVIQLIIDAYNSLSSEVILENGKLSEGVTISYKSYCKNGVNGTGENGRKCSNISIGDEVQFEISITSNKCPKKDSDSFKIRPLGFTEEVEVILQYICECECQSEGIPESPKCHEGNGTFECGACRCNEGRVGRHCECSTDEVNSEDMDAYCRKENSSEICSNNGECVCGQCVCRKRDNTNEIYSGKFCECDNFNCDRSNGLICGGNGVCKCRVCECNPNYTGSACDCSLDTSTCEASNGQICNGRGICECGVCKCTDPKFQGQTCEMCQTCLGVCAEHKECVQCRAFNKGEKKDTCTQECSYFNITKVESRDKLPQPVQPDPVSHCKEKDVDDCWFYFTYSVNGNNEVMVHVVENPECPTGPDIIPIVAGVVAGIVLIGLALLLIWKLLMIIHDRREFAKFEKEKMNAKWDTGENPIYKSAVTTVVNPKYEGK
Chain of Integrin alpha-5/beta-1 (P08648 42-894 limits assumed): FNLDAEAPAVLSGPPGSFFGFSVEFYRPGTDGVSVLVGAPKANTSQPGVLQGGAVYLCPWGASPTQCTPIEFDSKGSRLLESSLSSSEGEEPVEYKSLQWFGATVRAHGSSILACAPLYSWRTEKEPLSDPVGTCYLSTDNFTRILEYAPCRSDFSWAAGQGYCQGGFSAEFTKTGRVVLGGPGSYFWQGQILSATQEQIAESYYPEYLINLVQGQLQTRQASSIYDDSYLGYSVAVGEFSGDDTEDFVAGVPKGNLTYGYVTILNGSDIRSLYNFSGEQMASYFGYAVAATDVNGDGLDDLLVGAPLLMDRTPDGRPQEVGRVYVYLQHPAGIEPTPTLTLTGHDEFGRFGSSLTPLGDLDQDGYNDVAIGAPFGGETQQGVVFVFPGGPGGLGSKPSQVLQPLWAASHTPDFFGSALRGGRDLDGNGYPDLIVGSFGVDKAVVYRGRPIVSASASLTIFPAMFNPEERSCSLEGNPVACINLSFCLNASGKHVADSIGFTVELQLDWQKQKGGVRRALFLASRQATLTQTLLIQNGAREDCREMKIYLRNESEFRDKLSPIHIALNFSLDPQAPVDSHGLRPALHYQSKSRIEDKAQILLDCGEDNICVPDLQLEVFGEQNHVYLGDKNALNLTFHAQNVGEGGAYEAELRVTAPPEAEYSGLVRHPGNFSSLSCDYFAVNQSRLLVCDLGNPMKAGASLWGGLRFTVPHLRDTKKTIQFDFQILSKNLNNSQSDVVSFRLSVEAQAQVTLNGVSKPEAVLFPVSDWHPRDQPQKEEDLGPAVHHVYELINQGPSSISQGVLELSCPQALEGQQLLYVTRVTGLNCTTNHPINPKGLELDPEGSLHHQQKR
Chain of Integrin alpha-5/beta-1 (P08648 895-1049 limits assumed): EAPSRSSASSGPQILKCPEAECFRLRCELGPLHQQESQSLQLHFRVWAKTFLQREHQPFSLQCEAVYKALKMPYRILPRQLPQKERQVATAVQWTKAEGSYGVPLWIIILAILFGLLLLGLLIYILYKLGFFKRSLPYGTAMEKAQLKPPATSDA
Chain of Integrin alpha-4/beta-1 (P05556 whole entry, one chain of several): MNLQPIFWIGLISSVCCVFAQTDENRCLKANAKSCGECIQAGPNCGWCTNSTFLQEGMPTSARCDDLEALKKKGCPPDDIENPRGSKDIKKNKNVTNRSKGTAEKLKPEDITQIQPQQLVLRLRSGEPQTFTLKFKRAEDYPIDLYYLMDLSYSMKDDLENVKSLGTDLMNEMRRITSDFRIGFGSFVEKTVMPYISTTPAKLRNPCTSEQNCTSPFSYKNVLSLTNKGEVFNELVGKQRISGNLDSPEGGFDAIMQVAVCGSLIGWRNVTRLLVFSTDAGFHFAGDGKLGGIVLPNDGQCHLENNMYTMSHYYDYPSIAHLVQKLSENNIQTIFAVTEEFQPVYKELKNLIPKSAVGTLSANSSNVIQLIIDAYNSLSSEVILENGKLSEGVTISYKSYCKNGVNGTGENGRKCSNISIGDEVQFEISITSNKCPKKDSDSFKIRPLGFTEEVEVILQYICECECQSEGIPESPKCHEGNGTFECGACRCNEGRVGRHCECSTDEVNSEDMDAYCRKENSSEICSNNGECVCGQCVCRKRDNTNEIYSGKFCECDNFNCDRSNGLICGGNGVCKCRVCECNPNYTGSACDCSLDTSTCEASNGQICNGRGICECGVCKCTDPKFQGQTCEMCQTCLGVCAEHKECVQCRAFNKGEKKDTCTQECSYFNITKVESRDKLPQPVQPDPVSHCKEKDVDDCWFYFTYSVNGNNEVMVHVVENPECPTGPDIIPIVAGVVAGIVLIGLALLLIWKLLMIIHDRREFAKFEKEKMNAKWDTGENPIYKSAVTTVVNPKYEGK

## O=C1NC(=O)N(c2ccccc2)C(=O)/C1=C\c1ccccc1
Integrin alpha-4/beta-7
  pIC50: 5.66

## O=C1NC(=O)N(c2ccccc2)C(=O)/C1=C\c1ccc(C(F)(F)F)cc1
Integrin alpha-4/beta-7
  pIC50: 5.89

## O=C1NC(=O)N(c2ccccc2-c2ccccc2)C(=O)/C1=C\c1c[nH]c2ccccc12
Integrin alpha-5/beta-1
  pIC50: < 4.70
Integrin alpha-4/beta-1
  pIC50: < 4.70
Integrin alpha-4/beta-7
  pIC50: 6.59

## O=C1NC(=O)N(c2ccccc2)C(=O)/C1=C\c1cc2ccccc2[nH]1
Integrin alpha-4/beta-7
  pIC50: 5.00

## Cn1cc(/C=C2/C(=O)NC(=O)N(c3ccccc3)C2=O)c2ccccc21
Integrin alpha-4/beta-7
  pIC50: 5.39

## O=C1NC(=O)N(c2ccccc2)C(=O)/C1=C\c1ccco1
Integrin alpha-5/beta-1
  pIC50: < 4.70
Integrin alpha-4/beta-1
  pIC50: < 4.70
Integrin alpha-4/beta-7
  pIC50: 5.89

## O=C1NC(=O)N(c2cc(Cl)cc(Cl)c2)C(=O)/C1=C\c1ccccc1
Integrin alpha-4/beta-7
  pIC50: 5.80

## Cn1cc(/C=C2/C(=O)NC(=O)N(c3cccc4ccccc34)C2=O)c2ccccc21
Integrin alpha-4/beta-7
  pIC50: 6.74

## CC(C)(C)N1C(=O)NC(=O)/C(=C/c2c[nH]c3ccccc23)C1=O
Integrin alpha-4/beta-7
  pIC50: < 4.70

## O=C1NC(=O)N(c2cccc3ccccc23)C(=O)/C1=C\c1c[nH]c2ccccc12
Integrin alpha-5/beta-1
  pIC50: < 4.70
[1]
  clearance: 71 mL/min/kg
Integrin alpha-4/beta-1
  pIC50: < 4.70
[2]
  bioavailability: 62%
Mus musculus
  AUC: 170 mg·min/mL
[3]
  half-life: 4.1 h
[4]
  Vd: 24.8 L/kg
Integrin alpha-4/beta-7
  pIC50: 7.22

## O=C1NC(=O)N(c2ccccc2)C(=O)/C1=C\c1c[nH]c2ccccc12
Integrin alpha-4/beta-7
  pIC50: 6.05

## O=C(/C=C1/C(=O)NC(=O)N(c2ccccc2)C1=O)/C=C/c1ccccc1
Integrin alpha-4/beta-7
  pIC50: 5.07

## O=C1NC(=O)N(c2ccc(Cl)cc2)C(=O)/C1=C\c1ccccc1
Integrin alpha-4/beta-7
  pIC50: 6.00

## CN1C(=O)/C(=C/c2c[nH]c3ccccc23)C(=O)N(c2cccc3ccccc23)C1=O
Integrin alpha-4/beta-7
  pIC50: 5.26
